Test results as given in publication PMC10564794, “Safety and tolerability of oral vorolanib for neovascular (wet) age-related macular degeneration: a phase I, open-label study” (Eye, 2023).
Read-outs that look alike come from different tables or passages of the source.

Legend:
[1] = system: Caucasian participants with nAMD; settings: participants that completed 24 weeks; cited from earlier work
[2] = Pharmacokinetics of vorolanib after single and multiple dosing; type: in vivo, human; settings: for half-life / Cmax / Tmax / AUC / Vd/F / AUC(0-t): human, plasma, oral; for Tmax: median (range); for Vd/F: read-out: Vz/F (apparent volume of distribution); for AUC(0-t): read-out: AUC0-24h
Method: In the initial PK evaluation after a single dose, blood samples from participants in the 25 mg group were collected predose (−0.5 h) and at 0.5, 1, 2, 3, 4, 6, 8, 12, 16, 24, 36, and 48 h post-dose; blood samples from participants in the 50 mg and 75 mg groups were collected predose (−0.5 h) and at 0.5, 1, 2, 3, 4, 6, 8, 12, 16, 24, 36, 48, and 72 h post-dose. During continuous dosing, blood in the 50 mg group was obtained on Day 7, Day 14 and Day 21 predose and on Day 30 predose and at 0.5, 1, 2, 3, 4, 6, 8, 12, 16 and 24 h post-dose, while blood in the 75 mg group was obtained on Day 7, Day 14 and Day 21 predose and on Day 30 predose and at 0.5, 1, 2, 3, 4, 6, 8, 12, 16, 24, 36, 48, and 72 h post-dose. The multiple dose data for 25 mg were not collected.
All participants moved from single dosing to multiple daily dosing.

[3] = system: study eyes of participants with nAMD; test: Efficacy: change from baseline in BCVA (ETDRS), CST and CNV characteristics; type: in vivo, human
Method: The efficacy outcomes included changes from baseline in mean BCVA based on ETDRS, central subfield thickness (CST), and CNV characteristics. CST was confirmed by a […] (Heidelberg Engineering, Heidelberg, Germany) at screening, Day 14, and Day 30; then monthly for the next 6 months; and then every 3 months until the end of treatment. FA was performed by a Heidelberg retina tomograph (Heidelberg Engineering) with an Ophthavision Imaging System (MRP Group, Boston, MA) capture station at the screening, Day 90, Day 180, Day 270 and Day 360 visits.
Because this was a phase I study, no power calculation was performed to determine sample size. All participants who had received at least one dose of vorolanib were included in the safety assessment. All participants who completed the course of vorolanib treatment were included for efficacy assessment. All participants who had received at least one dose of vorolanib and who had PK data were included in the PK analysis. Descriptive statistics were used for analyses. For quantitative data, the means ± standard deviations were selected. All statistical analyses were performed with SAS software, v. 9.4 (SAS Institute Inc., Cary, NC, USA).

[4] = system: human umbilical vein endothelial cells stimulated with rHuVEGF165; set-up: method as in PMID 33610563; settings: HUVEC stimulated with rHuVEGF165; cited from earlier work
[5] = continuous dose administration, 50 to 75 mg
[6] = multiple doses 50 mg daily, n = 8, arithmetic mean (%CV)
[7] = multiple doses 75 mg daily, n = 8, arithmetic mean (%CV)

For `Cc1[nH]c(/C=C2\C(=O)Nc3ccc(F)cc32)c(C)c1C(=O)N[C@H]1CCN(C(=O)N(C)C)C1` [vorolanib, Vorolanib], which “Mean reduction in CST” value [1] is on record?
The value was 50 μm.

What about the Accumulation [2, 5] of the same compound?
The Accumulation was “no obvious accumulation”.

And the “Time to steady-state concentration” value [2, 5]?
The value was 4 days.

What about the “Dose dependence of maximum blood concentration and area under the curve” value ([2]; doses of 25–50 mg after a single dose) of the same compound?
The value was “increased linearly in a dose-dependent manner”.

What about the half-life ([2]; 25 mg, single dose 25 mg, n = 8, arithmetic mean (%CV)) of the same compound?
Its half-life is 5.9 h.

And the Cmax ([2]; 25 mg, single dose 25 mg, n = 8, arithmetic mean (%CV), read-out: Cmax)?
The Cmax was 140 ng/mL.

And the Tmax ([2]; 25 mg, single dose 25 mg, n = 8, read-out: Tmax)?
Its Tmax is 3.03 h.

What about the half-life ([2]; 50 mg, multiple doses 50 mg daily, n = 8, arithmetic mean (%CV)) of the same compound?
Its half-life is 4.9 h.

What about the Cmax ([2]; 50 mg, multiple doses 50 mg daily, n = 8, arithmetic mean (%CV), read-out: Cmax,ss) of the same compound?
The Cmax was 246 ng/mL.

And the Tmax ([2]; 50 mg, multiple doses 50 mg daily, n = 8, read-out: Tmax,ss)?
Its Tmax is 5.03 h.

And the half-life ([2]; 50 mg, single dose 50 mg, n = 8, arithmetic mean (%CV))?
Its half-life is 10.7 h.

What about the Cmax ([2]; 50 mg, single dose 50 mg, n = 8, arithmetic mean (%CV), read-out: Cmax) of the same compound?
The Cmax was 201 ng/mL.

And the Tmax ([2]; 50 mg, single dose 50 mg, n = 8, read-out: Tmax)?
The Tmax was 6 h.

What about the half-life ([2]; 75 mg, multiple doses 75 mg daily, n = 8, arithmetic mean (%CV)) of the same compound?
The half-life was 7.3 h.

What about the Cmax ([2]; 75 mg, multiple doses 75 mg daily, n = 8, arithmetic mean (%CV), read-out: Cmax,ss) of the same compound?
The Cmax was 269 ng/mL.

What about the Tmax ([2]; 75 mg, multiple doses 75 mg daily, n = 8, read-out: Tmax,ss) of the same compound?
Its Tmax is 4 h.

And the half-life ([2]; 75 mg, single dose 75 mg, n = 8, arithmetic mean (%CV))?
The half-life was 10.3 h.

And the Cmax ([2]; 75 mg, single dose 75 mg, n = 8, arithmetic mean (%CV), read-out: Cmax)?
The Cmax was 237 ng/mL.

And the Tmax ([2]; 75 mg, single dose 75 mg, n = 8, read-out: Tmax)?
Its Tmax is 4 h.

What about the half-life ([2]; single dosing, 25–75 mg cohorts, approximately) of the same compound?
Its half-life is 5.9 to 10.7 h.

What about the AUC [2, 6] of the same compound?
Its AUC is 2180 ng·h/mL.

What about the Vd/F [2, 6] of the same compound?
Its Vd/F is 180 L.

And the AUC [2, 7]?
The AUC was 1950 ng·h/mL.

And the Vd/F [2, 7]?
The Vd/F was 436 L.

What about the AUC(0-t) ([2]; single dose 25 mg, n = 8, arithmetic mean (%CV)) of the same compound?
The AUC(0-t) was 1010 ng·h/mL.

What about the AUC(0-t) ([2]; single dose 50 mg, n = 8, arithmetic mean (%CV)) of the same compound?
Its AUC(0-t) is 1730 ng·h/mL.

And the AUC(0-t) ([2]; single dose 75 mg, n = 8, arithmetic mean (%CV))?
The AUC(0-t) was 1700 ng·h/mL.

And the “CLss/F (apparent oral clearance)” value [2, 6]?
Its value is 26.2 (40.1) L/h.

And the “Rac (accumulation ratio based on AUCss)” value [2, 6]?
The value was 1.30 (31.3).

And the “CLss/F (apparent oral clearance)” value [2, 7]?
Its value is 42.4 (32.7) L/h.

And the “Rac (accumulation ratio based on AUCss)” value [2, 7]?
Its value is 1.20 (36.2).

What about the “AUC in Chinese people versus Americans” value ([2]; preliminary PK results, unpublished data) of the same compound?
The value was “relatively higher AUC in Chinese people than in Americans”.

And the “Mean Change from Baseline to day 180 CST” value ([3]; 25 mg cohort, N 16)?
The value was −11.7 μm.

And the “Mean Change from Baseline to day 360 BCVA” value ([3]; 25 mg cohort, N 16)?
The value was “+4.3 letters”.

And the “Mean Change from Baseline to day 360 CST” value ([3]; 25 mg cohort, N 16)?
Its value is −27.0 μm.

And the “Mean Change from Baseline to day 180 CST” value ([3]; 50 mg cohort, N 16)?
Its value is −85.0 μm.

And the “Mean Change from Baseline to day 360 BCVA” value ([3]; 50 mg cohort, N 16)?
Its value is “+8.5 letters”.

What about the “Mean Change from Baseline to day 360 CST” value ([3]; 50 mg cohort, N 16) of the same compound?
The value was −54.8 μm.

What about the “Mean Change from Baseline to day 180 CST” value ([3]; 75 mg cohort, N 8) of the same compound?
The value was −33.0 μm.

What about the “Mean Change from Baseline to day 360 BCVA” value ([3]; 75 mg cohort, N 8) of the same compound?
The value was “+12.0 letters”.

And the “Mean Change from Baseline to day 360 CST” value ([3]; 75 mg cohort, N 8)?
Its value is −45.5 μm.

What about the “Mean decrease in CNV area” value ([3]; 41 participants, baseline to Day 360, range −3.8–0.2) of the same compound?
Its value is −0.9 mm^2.

What about the “Mean decrease in lesion area” value ([3]; 41 participants, baseline to Day 360, range −4.8–0.5) of the same compound?
Its value is −1.3 mm^2.

And the “Mean decrease in CNV leakage” value ([3]; 41 participants, baseline to Day 360, range −10.8–0.2)?
Its value is −4.0 mm^2.

What about the “Mean BCVA improvement at follow-up after treatment” value ([3]; 75.6% of participants who continued follow-up one month after vorolanib treatment) of the same compound?
Its value is 2.6 letters.

What about the “Participants evaluable at Day 360 who maintained or improved vision” value ([3]; Day 360) of the same compound?
Its value is 12 (29.3%) participants (%).

And the “Reduced CNV area” value ([3]; accompanying decline in CNV leakage)?
Its value is 37.4%.

And the “Mean Change from Baseline to day 180 CST” value ([3]; all cohorts, N 41)?
The value was −48.6 μm.

What about the “Mean Change from Baseline to day 360 CST” value ([3]; all cohorts, N 41, range −258–40) of the same compound?
The value was −44.0 μm.

And the “Mean reduction in CST” value ([3]; by Day 180, all participants)?
The value was 48.6 μm.

What about the Antiangiogenic effects [4] of the same compound?
Its Antiangiogenic effects is “highly antiangiogenic effects”.
